{"source": "patent US8765940B2", "about": "(priority 2009, dated 2014)", "data": [{"molecular_target": "PI3Kδ (Homo sapiens (Human), UniProt O00329)", "sequence (O00329 whole entry)": "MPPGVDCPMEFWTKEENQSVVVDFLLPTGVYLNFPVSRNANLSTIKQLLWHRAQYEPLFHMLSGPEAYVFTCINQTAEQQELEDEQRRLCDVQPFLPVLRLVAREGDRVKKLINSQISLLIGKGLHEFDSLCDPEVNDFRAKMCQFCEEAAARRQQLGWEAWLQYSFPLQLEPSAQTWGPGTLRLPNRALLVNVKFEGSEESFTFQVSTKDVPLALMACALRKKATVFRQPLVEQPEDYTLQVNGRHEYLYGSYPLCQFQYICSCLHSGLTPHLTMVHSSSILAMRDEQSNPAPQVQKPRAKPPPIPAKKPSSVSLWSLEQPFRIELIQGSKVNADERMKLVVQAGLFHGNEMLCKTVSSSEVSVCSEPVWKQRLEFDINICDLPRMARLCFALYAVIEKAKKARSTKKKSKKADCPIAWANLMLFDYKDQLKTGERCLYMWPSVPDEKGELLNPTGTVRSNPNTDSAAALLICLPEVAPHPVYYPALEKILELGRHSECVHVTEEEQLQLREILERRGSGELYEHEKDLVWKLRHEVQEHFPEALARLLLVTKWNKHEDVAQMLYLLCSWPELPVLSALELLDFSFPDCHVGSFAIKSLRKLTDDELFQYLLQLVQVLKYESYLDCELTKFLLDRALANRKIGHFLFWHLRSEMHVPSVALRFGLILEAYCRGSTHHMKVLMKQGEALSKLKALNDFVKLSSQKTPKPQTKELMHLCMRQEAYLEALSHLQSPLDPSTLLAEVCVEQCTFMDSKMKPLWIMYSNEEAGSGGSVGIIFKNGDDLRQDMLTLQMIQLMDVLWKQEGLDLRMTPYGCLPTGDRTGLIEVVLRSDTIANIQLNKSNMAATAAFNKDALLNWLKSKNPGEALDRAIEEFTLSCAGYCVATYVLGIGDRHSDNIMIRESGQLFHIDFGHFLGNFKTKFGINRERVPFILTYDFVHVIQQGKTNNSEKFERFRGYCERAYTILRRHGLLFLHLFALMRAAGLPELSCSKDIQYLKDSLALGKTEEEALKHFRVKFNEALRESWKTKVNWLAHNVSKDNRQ", "sequence (P27986 whole entry partner)": "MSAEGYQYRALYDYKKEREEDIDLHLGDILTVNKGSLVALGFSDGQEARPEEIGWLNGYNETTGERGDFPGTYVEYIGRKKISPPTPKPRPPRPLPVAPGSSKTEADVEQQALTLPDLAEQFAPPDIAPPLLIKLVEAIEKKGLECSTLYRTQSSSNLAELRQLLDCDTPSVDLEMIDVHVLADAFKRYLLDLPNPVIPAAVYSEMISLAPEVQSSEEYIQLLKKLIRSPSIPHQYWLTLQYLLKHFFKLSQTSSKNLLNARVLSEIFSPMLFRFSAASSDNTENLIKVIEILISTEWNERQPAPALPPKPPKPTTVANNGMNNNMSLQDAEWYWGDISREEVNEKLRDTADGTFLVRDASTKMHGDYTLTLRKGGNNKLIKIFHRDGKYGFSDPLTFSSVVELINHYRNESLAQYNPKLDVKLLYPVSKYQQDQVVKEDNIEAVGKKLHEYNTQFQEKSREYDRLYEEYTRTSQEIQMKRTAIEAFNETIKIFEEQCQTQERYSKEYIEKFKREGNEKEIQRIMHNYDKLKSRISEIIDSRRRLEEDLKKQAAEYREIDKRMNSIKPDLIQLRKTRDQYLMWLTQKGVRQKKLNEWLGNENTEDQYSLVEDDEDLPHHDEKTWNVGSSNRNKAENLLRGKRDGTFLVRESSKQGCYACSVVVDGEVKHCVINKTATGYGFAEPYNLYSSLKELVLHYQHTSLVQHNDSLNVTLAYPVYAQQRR", "type": "biochemical", "conditions": "PI3Kδ Alphascreen assay", "units": {"Ki": "µM"}, "values": [{"molecule": "Cc1nc2ccccc2c(N2CC3(CCOCC3)c3ccc(N4CCOCC4)cc32)c1C", "note": "[1-(2,3-dimethyl-4-quinolinyl)-6-(4-morpholinyl)-1,2,2′,3′,5′,6′-hexahydrospiro[indole-3,4′-pyran]]", "Ki": 0.45}, {"molecule": "Cc1c(-c2ccccc2)nc2ccccc2c1N1CC2(CCOCC2)c2ccc(N3CCOCC3)cc21", "note": "[1-(3-methyl-2-phenyl-4-quinolinyl)-6-(4-morpholinyl)-1,2,2′,3′,5′,6′-hexahydrospiro[indole-3,4′-pyran]]", "Ki": 0.0913}, {"molecule": "Cc1c(N2CCCC2=O)nc2cc(F)cc(F)c2c1N1CC(C)(C)c2ncc(N3CCOCC3)cc21", "note": "[1-(4-(3,3-dimethyl-6-(4-morpholinyl)-2,3-dihydro-1H-pyrrolo[3,2-b]pyridin-1-yl)-5,7-difluoro-3-methyl-2-quinolinyl)-2-pyrrolidinone]", "Ki": 0.00154}, {"molecule": "Cc1c(-c2ccccn2)nc2cc(F)cc(F)c2c1N1CC2(CCOCC2)c2ccc(N3CCOCC3)cc21", "note": "[1-(5,7-difluoro-3-methyl-2-(2-pyridinyl)-4-quinolinyl)-6-(4-morpholinyl)-1,2,2′,3′,5′,6′-hexahydrospiro[indole-3,4′-pyran]]", "Ki": 0.0211}, {"molecule": "Cc1c(-n2ccccc2=O)nc2cc(F)cc(F)c2c1N1CC2(CCOCC2)c2ccc(N3CCOCC3)cc21", "note": "[1-(5,7-difluoro-3-methyl-4-(6-(4-morpholinyl)-2′,3′,5′,6′-tetrahydrospiro[indole-3,4′-pyran]-1(2H)-yl)-2-quinolinyl)-2(1H)-pyridinone]", "Ki": 0.00464}, {"molecule": "Cc1c(N2CCC2=O)nc2cc(F)cc(F)c2c1N1CC2(CCOCC2)c2ncc(N3CCOCC3)cc21", "note": "[1-(5,7-difluoro-3-methyl-4-(6′-(4-morpholinyl)-2,3,5,6-tetrahydrospiro[pyran-4,3′-pyrrolo[3,2-b]pyridin]-1′(2′H)-yl)-2-quinolinyl)-2-azetidinone]", "Ki": 0.0023}, {"molecule": "Cc1c(N2CCCCC2=O)nc2cc(F)cc(F)c2c1N1CC2(CCOCC2)c2ncc(N3CCOCC3)cc21", "note": "[1-(5,7-difluoro-3-methyl-4-(6′-(4-morpholinyl)-2,3,5,6-tetrahydrospiro[pyran-4,3′-pyrrolo[3,2-b]pyridin]-1′(2′H)-yl)-2-quinolinyl)-2-piperidinone]", "Ki": 0.00551}, {"molecule": "Cc1c(N2CCCC2=O)nc2cc(F)cc(F)c2c1N1CC2(CCOCC2)c2ncc(N3CCOCC3)cc21", "note": "[1-(5,7-difluoro-3-methyl-4-(6′-(4-morpholinyl)-2,3,5,6-tetrahydrospiro[pyran-4,3′-pyrrolo[3,2-b]pyridin]-1′(2′H)-yl)-2-quinolinyl)-2-pyrrolidinone]", "Ki": 0.00236}, {"molecule": "Cc1c(N2CC(C)(C)CC2=O)nc2cc(F)cc(F)c2c1N1CC2(CCOCC2)c2ncc(N3CCOCC3)cc21", "note": "[1-(5,7-difluoro-3-methyl-4-(6′-(4-morpholinyl)-2,3,5,6-tetrahydrospiro[pyran-4,3′-pyrrolo[3,2-b]pyridin]-1′(2′H)-yl)-2-quinolinyl)-4,4-dimethyl-2-pyrrolidinone]", "Ki": 0.00224}, {"molecule": "Cc1c(N2CC(C)(C)CCC2=O)nc2cc(F)cc(F)c2c1N1CC2(CCOCC2)c2ncc(N3CCOCC3)cc21", "note": "[1-(5,7-difluoro-3-methyl-4-(6′-(4-morpholinyl)-2,3,5,6-tetrahydrospiro[pyran-4,3′-pyrrolo[3,2-b]pyridin]-1′(2′H)-yl)-2-quinolinyl)-5,5-dimethyl-2-piperidinone]", "Ki": 0.0027}, {"molecule": "Cc1c(-c2ccccn2)nc2cccc(F)c2c1N1CCS(=O)(=O)c2ncc(N3CCOCC3)cc21", "note": "[1-(5-fluoro-3-methyl-2-(2-pyridinyl)-4-quinolinyl)-7-(4-morpholinyl)-2,3-dihydro-1H-pyrido[2,3-b][1,4]thiazine 4,4-dioxide]", "Ki": 0.0129}, {"molecule": "Cc1nc2ccc(Cl)cc2c(-n2ccc3c(O)cc(-c4cn[nH]c4)cc32)c1C", "note": "[1-(6-chloro-2,3-dimethyl-4-quinolinyl)-6-(1H-pyrazol-4-yl)-1H-indol-4-ol]", "Ki": 4.11}, {"molecule": "Cc1nc2ccc(Cl)cc2c(-n2cc(C#N)c3ccc(-c4cn[nH]c4)cc32)c1C", "note": "[1-(6-chloro-2,3-dimethyl-4-quinolinyl)-6-(1H-pyrazol-4-yl)-1H-indole-3-carbonitrile]", "Ki": 2.11}, {"molecule": "Cc1nc2ccc(Cl)cc2c(-n2ccc3c(C#N)cc(-c4cn[nH]c4)cc32)c1C", "note": "[1-(6-chloro-2,3-dimethyl-4-quinolinyl)-6-(1H-pyrazol-4-yl)-1H-indole-4-carbonitrile]", "Ki": 1.08}, {"molecule": "Cc1nc2ccc(Cl)cc2c(N2CC3(CCOCC3)c3ccc(N4CCOCC4)cc32)c1C", "note": "[1-(6-chloro-2,3-dimethyl-4-quinolinyl)-6-(4-morpholinyl)-1,2,2′,3′,5′,6′-hexahydrospiro[indole-3,4′-pyran]]", "Ki": 0.073}, {"molecule": "Cc1nc2ccc(Cl)cc2c(-n2ccc3c(C#N)cc(N4CCOCC4)cc32)c1C", "note": "[1-(6-chloro-2,3-dimethyl-4-quinolinyl)-6-(4-morpholinyl)-1H-indole-4-carbonitrile]", "Ki": 0.153}, {"molecule": "Cc1nc2ccc(Cl)cc2c(-n2ccc3c(C#N)cc(-c4ccncc4)cc32)c1C", "note": "[1-(6-chloro-2,3-dimethyl-4-quinolinyl)-6-(4-pyridinyl)-1H-indole-4-carbonitrile]", "Ki": 1.48}, {"molecule": "COc1cc2nc(C)c(C)c(N3CC4(CCOCC4)c4ccc(C#N)cc43)c2cc1Cl", "note": "[1-(6-chloro-7-methoxy-2,3-dimethyl-4-quinolinyl)-1,2,2′,3′,5′,6′-hexahydrospiro[indole-3,4′-pyran]-6-carbonitrile]", "Ki": 7.5}, {"molecule": "Cc1c(-c2ccccc2F)nc2cc(Cl)ccc2c1N1CC2(CCOCC2)c2ccc(N3CCOCC3)cc21", "note": "[1-(7-chloro-2-(2-fluorophenyl)-3-methyl-4-quinolinyl)-6-(4-morpholinyl)-1,2,2′,3′,5′,6′-hexahydrospiro[indole-3,4′-pyran]]", "Ki": 0.57}, {"molecule": "Cc1c(-c2ccccc2F)nc2cc(F)ccc2c1N1CC2(CCOCC2)c2ccc(N3CCOCC3)cc21", "note": "[1-(7-fluoro-2-(2-fluorophenyl)-3-methyl-4-quinolinyl)-6-(4-morpholinyl)-1,2,2′,3′,5′,6′-hexahydrospiro[indole-3,4′-pyran]]", "Ki": 0.0254}, {"molecule": "COc1cccc(-c2nc3cc(F)ccc3c(N3CC4(CCOCC4)c4ccc(N5CCOCC5)cc43)c2C)n1", "note": "[1-(7-fluoro-2-(6-methoxy-2-pyridinyl)-3-methyl-4-quinolinyl)-6-(4-morpholinyl)-1,2,2′,3′,5′,6′-hexahydrospiro[indole-3,4′-pyran]]", "Ki": 0.0688}, {"molecule": "Cc1c(-c2ccccc2S(C)(=O)=O)nc2cc(F)ccc2c1N1CC2(CCOCC2)c2ccc(N3CCOCC3)cc21", "note": "[1-(7-fluoro-3-methyl-2-(2-(methylsulfonyl)phenyl)-4-quinolinyl)-6-(4-morpholinyl)-1,2,2′,3′,5′,6′-hexahydrospiro[indole-3,4′-pyran]]", "Ki": 0.0102}, {"molecule": "Cc1ncccc1-c1nc2cc(F)ccc2c(N2CC3(CCOCC3)c3ccc(N4CCOCC4)cc32)c1C", "note": "[1-(7-fluoro-3-methyl-2-(2-methyl-3-pyridinyl)-4-quinolinyl)-6-(4-morpholinyl)-1,2,2′,3′,5′,6′-hexahydrospiro[indole-3,4′-pyran]]", "Ki": 0.0145}, {"molecule": "Cc1c(-c2ccccn2)nc2cc(F)ccc2c1N1CC(C)(C)c2nc(C#N)c(N3CCOCC3)cc21", "note": "[1-(7-fluoro-3-methyl-2-(2-pyridinyl)-4-quinolinyl)-3,3-dimethyl-6-(4-morpholinyl)-2,3-dihydro-1H-pyrrolo[3,2-b]pyridine-5-carbonitrile]", "Ki": 0.0495}, {"molecule": "Cc1c(-c2ccccn2)nc2cc(F)ccc2c1N1CC2(CCOCC2)c2ccc(N3CCOCC3)cc21", "note": "[1-(7-fluoro-3-methyl-2-(2-pyridinyl)-4-quinolinyl)-6-(4-morpholinyl)-1,2,2′,3′,5′,6′-hexahydrospiro[indole-3,4′-pyran]]", "Ki": 0.0182}, {"molecule": "Cc1c(-c2ccccn2)nc2cc(F)ccc2c1N1CC2(CCS(=O)(=O)CC2)c2ccc(N3CCOCC3)cc21", "note": "[1-(7-fluoro-3-methyl-2-(2-pyridinyl)-4-quinolinyl)-6-(4-morpholinyl)-1,2,2′,3′,5′,6′-hexahydrospiro[indole-3,4′-thiopyran]-1′,1′-dioxide]", "Ki": 0.0644}, {"molecule": "Cc1c(-c2ccccn2)nc2cc(F)ccc2c1N1CC2(CS(=O)(=O)C2)c2ccc(N3CCOCC3)cc21", "note": "[1-(7-fluoro-3-methyl-2-(2-pyridinyl)-4-quinolinyl)-6-(4-morpholinyl)-1,2-dihydrospiro[indole-3,3′-thietane] 1′,1′-dioxide]", "Ki": 0.0805}, {"molecule": "Cc1c(-c2cccnc2)nc2cc(F)ccc2c1N1CC2(CCOCC2)c2ccc(N3CCOCC3)cc21", "note": "[1-(7-fluoro-3-methyl-2-(3-pyridinyl)-4-quinolinyl)-6-(4-morpholinyl)-1,2,2′,3′,5′,6′-hexahydrospiro[indole-3,4′-pyran]]", "Ki": 0.0475}, {"molecule": "Cc1c(N2CCCCC2=O)nc2cc(F)ccc2c1N1CC2(CCOCC2)c2ncc(N3CCOCC3)cc21", "note": "[1-(7-fluoro-3-methyl-4-(6′-(4-morpholinyl)-2,3,5,6-tetrahydrospiro[pyran-4,3′-pyrrolo[3,2-b]pyridin]-1′(2′H)-yl)-2-quinolinyl)-2-piperidinone]", "Ki": 0.00162}, {"molecule": "Cc1c(N2CCOC(C)(C)C2)nc2cc(F)cc(F)c2c1N1CC2(CCOCC2)c2ncc(N3CCOCC3)cc21", "note": "[1′-(2-(2,2-dimethyl-4-morpholinyl)-5,7-difluoro-3-methyl-4-quinolinyl)-6′-(4-morpholinyl)-1′,2,2′,3,5,6-hexahydrospiro[pyran-4,3′-pyrrolo[3,2-b]pyridine]]", "Ki": 0.0054}, {"molecule": "Cc1c(-c2cc(F)cc(F)c2)nc2cnccc2c1N1CC2(CCOCC2)c2ncc(N3CCOCC3)cc21", "note": "[1′-(2-(3,5-difluorophenyl)-3-methyl-1,7-naphthyridin-4-yl)-6′-(4-morpholinyl)-1′,2,2′,3,5,6-hexahydrospiro[pyran-4,3′-pyrrolo[3,2-b]pyridine]]", "Ki": 0.0134}, {"molecule": "Cc1c(-c2cc(F)cc(F)c2)nc2ncccc2c1N1CC2(CCOCC2)c2ncc(N3CCOCC3)cc21", "note": "[1′-(2-(3,5-difluorophenyl)-3-methyl-1,8-naphthyridin-4-yl)-6′-(4-morpholinyl)-1′,2,2′,3,5,6-hexahydrospiro[pyran-4,3′-pyrrolo[3,2-b]pyridine]]", "Ki": 0.0282}, {"molecule": "Cc1cc(C)cc(-c2nc3cc(F)ccc3c(N3CC4(CCOCC4)c4ncc(N5CCOCC5)cc43)c2C)c1", "note": "[1′-(2-(3,5-dimethylphenyl)-7-fluoro-3-methyl-4-quinolinyl)-6′-(4-morpholinyl)-1′,2,2′,3,5,6-hexahydrospiro[pyran-4,3′-pyrrolo[3,2-b]pyridine]]", "Ki": 0.0121}]}]}
